The values that follow come from patent US9216968B2, “Heterocyclic derivative and pharmaceutical drug” (NIPPON SHINYAKU CO., LTD., priority 2011, dated 2015).

For one assay, the target named is human mPGES-1 (Homo sapiens (Human), UniProt O14684). Kind of assay: mPGES-1 inhibiting activity (microsome fractions, PGE2 by HTRF). Type of assay: biochemical. The following applies: microsomes from CHO-K1 cells transfected with human mPGES-1; PGH2 1 μM, 4° C., 60 seconds; read-out: mPGES-1 Inhibition IC50. In outline: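 PGE2 formation read by HTRF after 60 s at 4 °C with 1 μM PGH2 substrate, following 20 min compound preincubation (1% DMSO) with human mPGES-1 microsomes from transfected CHO-K1 cells. Buffer: potassium phosphate, reduced glutathione, pH 7.4; IC50 from activity relative to enzyme-free blank.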
human mPGES-1, sequence (O14684 whole entry): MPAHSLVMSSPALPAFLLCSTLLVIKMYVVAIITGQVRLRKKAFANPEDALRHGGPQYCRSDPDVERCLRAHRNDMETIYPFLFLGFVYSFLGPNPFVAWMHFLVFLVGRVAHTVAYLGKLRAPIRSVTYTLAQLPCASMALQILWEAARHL
A general note: Time-resolved FRET reads energy transfer from a long-lived donor to a nearby acceptor.

In the next assay the test system is A549 cells. As to the kind of experiment: Inhibition of PGE2 production in A549 cell (IL-1β stimulated). In kind it is cell-based, human. The following applies: IL-1β 5 ng/well, PGE2 in culture medium. A digest of the protocol: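 After IL-1β (5 ng/well) stimulation for 24 h at 37 °C, following a 60-min compound pretreatment in RPMI with 3% FBS, medium PGE2 (HTRF) and PGF2α (EIA) from human A549 cells were quantified. 100% activity set as IL-1β-induced minus basal production; IC50 calculated.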

pIC50: −log10 of the molar value. Structures can show the parent of a compound that is named as a salt.

By pIC50 is commonly meant the IC50 on a negative log10 scale, so that one unit is a factor of ten.

Consider `COCc1nc2c(C(=O)Nc3cccc(Cl)c3C)cc(NC(=O)c3cc(CCC4CC4)ccc3Cl)cc2[nH]1` [Example 122, 6-({[2-Chloro-5-(2-cyclopropylethyl)phenyl]carbonyl}amino)-N-(3-chloro-2-methylphenyl)-2-(methoxymethyl)-1H-benzimidazole-4-carboxamide], for which the pIC50 was 8.01 on human mPGES-1 and under 6.00 with A549 cells (Homo sapiens, A549, 24 h).
For `COCc1nc2c(C(=O)Nc3ccc(C(C)(C)C)cc3)cc(NC(=O)c3ccccc3C(F)(F)F)cc2[nH]1` [Example 27, N-(4-tert-Butylphenyl)-2-(methoxymethyl)-6-({[2-(trifluoromethyl)phenyl]carbonyl}amino)-1H-benzimidazole-4-carboxamide hydrochloride], the pIC50 was 8.62 at human mPGES-1 and 7.80 in the assay with A549 cells (Homo sapiens, A549, 24 h).
Turning to `Cc1c(Cl)cccc1NC(=O)c1cc(NC(=O)c2ccccc2C(F)(F)F)cc2[nH]c([C@H]3CCCO3)nc12` [Example 64, N-(3-Chloro-2-methylphenyl)-2-[(2R)-tetrahydrofuran-2-yl]-6-({[2-(trifluoromethyl)phenyl]carbonyl}amino)-1H-benzimidazole-4-carboxamide hydrochloride], the pIC50 on human mPGES-1 was 8.64; in the assay with A549 cells (24 hours, hydrochloride), 7.70.
In the case of `CCn1cnc2c(C(=O)NC3CCCCC3)cc(NC(=O)c3ccccc3C(F)(F)F)cc21` [Example 50, N-Cyclohexyl-1-ethyl-6-({[2-(trifluoromethyl)phenyl]carbonyl}amino)-1H-benzimidazole-4-carboxamide], the pIC50 was 6.85 on human mPGES-1 and 6.09 in the assay with A549 cells (Homo sapiens, A549, 24 h).
On the same counts, the results for `COC(C)(C)CNc1nc2c(C(=O)Nc3cccc(Cl)c3C)cc(NC(=O)c3ccccc3C(F)(F)F)cc2[nH]1` [Example 177, N-(3-Chloro-2-methylphenyl)-2-[(2-methoxy-2-methylpropyl)amino]-6-({[2-(trifluoromethyl)phenyl]carbonyl}amino)-1H-benz imidazole-4-carboxamide hydrochloride] are 8.08 and 7.34.
As for `CN(C)c1nc2c(C(=O)Nc3ccc4c(c3)CCC4)cc(NC(=O)c3ccccc3C(F)(F)F)cc2[nH]1` [Example 204, N-(2,3-Dihydro-1H-inden-5-yl)-2-(dimethylamino)-6-({[2-(trifluoromethyl)phenyl]carbonyl}amino)-1H-benzimidazole-4-carb oxamide hydrochloride], the pIC50 at human mPGES-1 is 9.00; in the assay with A549 cells (Homo sapiens, A549, 24 h), 7.91.
`Cc1nc2c(C(=O)NC3CCCCC3)cc(NC(=O)c3ccccc3C(F)(F)F)cc2[nH]1` [Example 13, N-Cyclohexyl-2-methyl-6-({[2-(trifluoromethyl)phenyl]carbonyl}amino)-1H-benzimidazole-4-carboxamide hydrochloride]: the negative-log IC50 (pIC50) on human mPGES-1 was 7.45; with A549 cells (Homo sapiens, A549, 24 h), 7.12.
As to `Cc1c(Cl)cccc1NC(=O)c1cc(NC(=O)c2ccccc2C(F)(F)F)cc2[nH]c(N3CC[C@H](O)C3)nc12` [Example 150, N-(3-Chloro-2-methylphenyl)-2-[(3S)-3-hydroxypyrrolidin-1-yl]-6-({[2-(trifluoromethyl)phenyl]carbonyl}amino)-1H-benzimidazole-4-carboxamide hydrochloride], the pIC50 is 8.68 on human mPGES-1 and 6.43 with A549 cells (Homo sapiens, A549, 24 h).
Consider `Cc1nc2c(C(=O)NC3CCCC3)cc(NC(=O)c3ccccc3C(F)(F)F)cc2[nH]1` [Example 15, N-Cyclopentyl-2-methyl-6-({[2-(trifluoromethyl)phenyl]carbonyl}amino)-1H-benzimidazole-4-carboxamide], for which the negative-log IC50 (pIC50) at human mPGES-1 was 7.43; in the assay with A549 cells (Homo sapiens, A549, 24 h), 6.33.
In the case of `CNC(=O)Cc1nc2c(C(=O)Nc3cccc(Cl)c3C)cc(NC(=O)c3ccccc3C(F)(F)F)cc2[nH]1` [Example 134, N-(3-Chloro-2-methylphenyl)-2-[2-(methylamino)-2-oxoethyl]-6-({[2-(trifluoromethyl)phenyl]carbonyl}amino)-1H-benzimidazole-4-carboxamide hydrochloride], the negative logarithm of the IC50 (pIC50) at human mPGES-1 was 7.99; with A549 cells (Homo sapiens, A549, 24 h), 6.04.
Regarding `COCc1nc2c(C(=O)Nc3ccccc3F)cc(NC(=O)c3ccccc3C(F)(F)F)cc2[nH]1` [Example 35, N-(2-Fluorophenyl)-2-(methoxymethyl)-6-({[2-(trifluoromethyl)phenyl]carbonyl}amino)-1H-benzimidazole-4-carboxamide], the pIC50 on human mPGES-1 was 7.69; in the assay with A549 cells (Homo sapiens, A549, 24 h), 6.69.
On the same counts, the results for `Cc1ccc(NC(=O)c2cc(NC(=O)c3c(F)cccc3Cl)cc3[nH]c(N(C)C)nc23)cc1Cl` [Example 205, 6-{[(2-Chloro-6-fluorophenyl)carbonyl]amino}-N-(3-chloro-4-methylphenyl)-2-(dimethylamino)-1H-benzimidazole-4-carboxamide hydrochloride] are 8.43 and 7.59.
On the same counts, the results for `CCc1nc2c(C(=O)Nc3cccc(Cl)c3C)cc(NC(=O)c3ccccc3C(F)(F)F)cc2[nH]1` [Example 17, N-(3-Chloro-2-methylphenyl)-2-ethyl-6-({[2-(trifluoromethyl)phenyl]carbonyl}amino)-1H-benzimidazole-4-carboxamide] are 8.01 and 7.67.
In the same order, the values of `Cc1c(Cl)cccc1NC(=O)c1cc(NC(=O)c2ccccc2C(F)(F)F)cc2[nH]c(CC(C)C)nc12` [Example 59, N-(3-Chloro-2-methylphenyl)-2-(2-methylpropyl)-6-({[2-(trifluoromethyl)phenyl]carbonyl}amino)-1H-benzimidazole-4-carboxamide hydrochloride] are 8.68 and 7.89.
On to `Cc1c(Cl)cccc1NC(=O)c1cc(NC(=O)c2c(F)cccc2Cl)cc2[nH]c([C@H]3CCCO3)nc12` [Example 127, 6-{[(2-Chloro-6-fluorophenyl)carbonyl]amino}-N-(3-chloro-2-methylphenyl)-2-[(2R)-tetrahydrofuran-2-yl]-1H-benzimidazole-4-carboxamide hydrochloride], for which the negative logarithm of the IC50 (pIC50) on human mPGES-1 was 8.20; with A549 cells (Homo sapiens, A549, 24 h), 6.84.
In the same order, the values of `Cc1c(Cl)cccc1NC(=O)c1cc(NC(=O)c2ccccc2C(F)(F)F)cc2[nH]c(C3CC3)nc12` [Example 83, N-(3-Chloro-2-methylphenyl)-2-cyclopropyl-6-({[2-(trifluoromethyl)phenyl]carbonyl}amino)-1H-benzimidazole-4-carboxamide hydrochloride] are 8.01 and 7.78.
Regarding `COCc1nc2c(C(=O)Nc3cccc(Cl)c3C)cc(NC(=O)c3cc(Cl)ccc3Cl)cc2[nH]1` [Example 99, N-(3-Chloro-2-methylphenyl)-6-{[(2,5-dichlorophenyl)carbonyl]amino}-2-(methoxymethyl)-1H-benzimidazole-4-carboxamide hydrochloride], the pIC50 at human mPGES-1 is 8.43; with A549 cells (Homo sapiens, A549, 24 h), 7.72.
On the same counts, the results for `Cc1c(Cl)cccc1NC(=O)c1cc(NC(=O)c2ccccc2C(F)(F)F)cc2[nH]c([C@@H]3CCCN3)nc12` [Example 71, N-(3-Chloro-2-methylphenyl)-2-[(2S)-pyrrolidin-2-yl]-6-({[2-(trifluoromethyl)phenyl]carbonyl}amino)-1H-benzimidazole-4-carboxamide dihydrochloride] are 7.48 and 6.64.
With `Cc1c(Cl)cccc1NC(=O)c1cc(NC(=O)c2ccccc2C(F)(F)F)cc2[nH]c(NCC(C)(C)C)nc12` [Example 140, N-(3-Chloro-2-methylphenyl)-2-[(2,2-dimethylpropyl)amino]-6-({[2-(trifluoromethyl)phenyl]carbonyl}amino)-1H-benzimidazole-4-carboxamide hydrochloride], the pIC50 on human mPGES-1 was 9.70; with A549 cells (Homo sapiens, A549, 24 h) it was 7.48.
Regarding `COCc1nc2c(C(=O)Nc3cccc(Cl)c3C)cc(NC(=O)c3c(Cl)cccc3Br)cc2[nH]1` [Example 102, 6-{[(2-Bromo-6-chlorophenyl)carbonyl]amino}-N-(3-chloro-2-methylphenyl)-2-(methoxymethyl)-1H-benzimidazole-4-carboxamide hydrochloride], the pIC50 on human mPGES-1 is 8.80; in the assay on A549 cells (Homo sapiens, A549, 24 h) it was 7.31.
In the same order, the values of `Cc1c(Cl)cccc1NC(=O)c1cc(NC(=O)c2ccccc2C(F)(F)F)cc2[nH]c(CC(=O)N(C)C)nc12` [Example 133, N-(3-Chloro-2-methylphenyl)-2-[2-(dimethylamino)-2-oxoethyl]-6-({[2-(trifluoromethyl)phenyl]carbonyl}amino)-1H-benzimidazole-4-carboxamide hydrochloride] are 8.15 and 6.31.
Turning to `Cc1c(Cl)cccc1NC(=O)c1cc(NC(=O)c2cc(Cl)ccc2Cl)cc2[nH]c(N(C)C)nc12` [Example 185, N-(3-Chloro-2-methylphenyl)-6-{[(2,5-dichlorophenyl)carbonyl]amino}-2-(dimethylamino)-1H-benzimidazole-4-carboxamide hydrochloride], the pIC50 at human mPGES-1 was 8.35; in the assay with A549 cells (Homo sapiens, A549, 24 h) it was 8.25.
As to `Cc1c(Cl)cccc1NC(=O)c1cc(NC(=O)c2ccccc2C(F)(F)F)cc2[nH]c(C3(C(F)(F)F)CC3)nc12` [Example 89, N-(3-Chloro-2-methylphenyl)-2-[1-(trifluoromethyl)cyclopropyl]-6-({[2-(trifluoromethyl)phenyl]carbonyl}amino)-1H-benzimidazole-4-carboxamide], the negative logarithm of the IC50 (pIC50) was 8.92 at human mPGES-1 and 8.68 in the assay with A549 cells (Homo sapiens, A549, 24 h).
